In paper PMC10057893, “Synthesis and Biological Evaluation of New Schiff Bases Derived from 4-Amino-5-(3-fluorophenyl)-1,2,4-triazole-3-thione” (Molecules, 2023):
Values after ≈ are worked out from the molar mass of the structure shown. Like-named read-outs stand apart in the source and are kept apart here.

How the values were obtained:
MDA-MB-231 = assay: MTT cell viability assay; type: cell-based, human; details: Homo sapiens, MDA-MB-231, MTT, read-out: Cytotoxic activity IC50
Description: (§1) All the cell lines were purchased from the American Type Culture Collection (ATCC, Rockville, MD, USA) and cultured in strictly defined conditions according to the recommended ATCC protocol. The PC3 cells were cultured in RPMI 1640 (Roswell Park Memorial Institute, Biowest SAS, Nuaillé, France), while the MDA-MB-231 and HaCaT cells were maintained in DMEM (Dulbecco’s Modified Eagle’s Medium, Biowest SAS, Nuaillé, France) supplemented with 1% streptomycin and penicillin and in 10% heat-inactivated fetal bovine serum (FBS, Gibco BRL San Francisco, CA, USA) with 1% streptomycin and penicillin. The cells were incubated in a 37 °C/5% CO2 humidified incubator. They were cultured until 80–90% confluence was achieved. Then, they were harvested by treatment with 0.25% trypsin-0.02% EDTA (Gibco BRL, San Francisco, CA, USA) and used in the experiments. Untreated cells were used as a control. […] After 24 h of incubation, the culture medium was replaced with a fresh medium. […] Then, the medium was aspirated and formed formazan crystals were solubilized by adding isopropanol-DMSO mixture (1:1 vol). The intensity of the dissolved crystals was measured using a UVM 340 reader (ASYS Hitech GmbH, Eugendorf, Austria) at a wavelength of 570 nm. Cell viability was estimated by the percentage of MTT reduction in cells to which the tested compounds were added, compared to the control sample, where only the medium was added. The experiments were repeated three times. The IC50 was calculated using GraphPad Prism 9.0.0 (GraphPad Software).

PC3 = assay: MTT cell viability assay; type: cell-based, human; details: Homo sapiens, PC-3, PC3, MTT, read-out: Cytotoxic activity IC50
Description: as §1

[1] = system: Staphylococcus epidermidis ATCC 12228; assay: Broth microdilution MIC/MBC, antibacterial; type: cell-based; details: ATCC12228
Description: (§2) The minimal inhibitory concentration (MIC) was determined with the microdilution technique using 96-well polystyrene microplates (Medlab, Poland), as indicated by the European Committee on Antimicrobial Susceptibility Testing (EUCAST) guidelines. In this process, stock solutions of each tested Schiff base dissolved in dimethylsulphoxide (DMSO, Stanlab, Poland) were used at a concentration of 50 mg/mL. Before in vitro antibacterial activity detection, the basic concentration of 1000 µg/mL of each compound was prepared with Mueller–Hinton broth medium (MHB, BioMaxima, Lublin, Poland). The experiment was prepared using Mueller–Hinton broth medium in 96-well microplates. A series of two-fold dilutions of the tested compounds in the concentration range from 0.49 to 1000 μg/mL was made in culture broth medium. Then, 2 μL of bacterial inoculum with a density of 0.5 McFarland standard was added to each well. Each well was filled with a total volume of 100 μL. Then, the microtiter plates were incubated for 18 ± 2 h at 35 °C. After the incubation, the results were spectrophotometrically determined in Biotek ELx800 (Biokom, Janki, Poland) at 600 nm (OD600). The lowest concentration of the tested compounds with the absence of bacterial growth was determined as an MIC. Three replicates for each strain and compound were performed.
(§3) After incubation, 5 μL of the broth media cultured with bacteria or fungi were removed from each well of the plates used in the MIC experiments. Next, they were culturd onto the surface of the MHA medium (BioMaxima, Lublin, Poland) plate for bacteria or MHA +2% glucose plate for yeasts. The inoculated plates were incubated in the conditions mentioned above. After incubation, a visual reading of MBC or MFC values was made. […] Three replicates for each strain and compound were performed.

[2] = system: Pseudomonas aeruginosa ATCC 27853; assay: Broth microdilution MIC/MBC, antibacterial; type: cell-based; details: ATCC27853
Description: as §2, §3

[3] = system: Staphylococcus aureus ATCC 6538; assay: Broth microdilution MIC/MBC, antibacterial; type: cell-based; details: ATCC6538
Description: as §2, §3

[4] = system: Escherichia coli ATCC 25922; assay: Broth microdilution MIC/MBC, antibacterial; type: cell-based; details: ATCC25922, Escherichia coli ATCC 25922
Description: as §2, §3

[5] = system: Bacillus subtilis ATCC 6633; assay: Broth microdilution MIC/MBC, antibacterial; type: cell-based; details: ATCC6633
Description: as §2, §3

[6] = system: Micrococcus luteus ATCC 10240; assay: Broth microdilution MIC/MBC, antibacterial; type: cell-based; details: ATCC10240
Description: as §2, §3

[7] = system: Klebsiella pneumoniae ATCC 13883; assay: Broth microdilution MIC/MBC, antibacterial; type: cell-based; details: ATCC13883, Klebsiella pneumoniae ATCC 13883
Description: as §2, §3

MTT cell viability assay = type: cell-based; details: human, HaCaT cells (immortal keratinocytes), HaCaT normal cell line, read-out: Cytotoxic activity IC50 (converted)
Description: as §1

[8] = system: Candida glabrata ATCC 15126; assay: Broth microdilution MIC/MFC, antifungal; type: cell-based; details: Nakaseomyces glabratus, ATCC15126
Description: (§4) To determine the antifungal activity of the newly synthesized Schiff bases against the reference strains of Candida spp., the broth microdilution method was used according to the EUCAST [52] and Clinical and Laboratory Standards Institute (CLSI) guidelines with some modifications to the medium. Before in vitro antifungal activity detection, the basic concentration of 1000 µg/mL of each compound was prepared with Mueller–Hinton broth (BioMaxima, Lublin, Poland) supplemented with 2% glucose (MHB+2% glucose). […] The final concentrations of the Schiff bases ranged from […] to 1000 µg/mL. All the reference strains of Candida spp. used were first subcultured to the Mueller–Hinton agar medium (BioMaxima, Lublin, Poland) with 2% glucose (MHA +2% glucose) at 37 °C for 24 h. Next, 2 µL of appropriate fungal suspensions was added to each well containing 100 µL of MHB + 2% glucose and the various concentrations of the tested Schiff bases.
as §3

[9] = system: Candida krusei ATCC 14243; assay: Broth microdilution MIC/MFC, antifungal; type: cell-based; details: Pichia kudriavzevii, ATCC14243
Description: as §4, §3

[10] = system: Candida lusitaniae ATCC 3449; assay: Broth microdilution MIC/MFC, antifungal; type: cell-based; details: Clavispora lusitaniae, ATCC3449
Description: as §4, §3

[11] = system: Candida glabrata ATCC 90030; assay: Broth microdilution MIC/MFC, antifungal; type: cell-based; details: Nakaseomyces glabratus, ATCC90030
Description: as §4, §3

[12] = system: Candida tropicalis ATCC 1369; assay: Broth microdilution MIC/MFC, antifungal; type: cell-based; details: ATCC1369
Description: as §4, §3

[13] = system: Candida albicans ATCC 10231; assay: Broth microdilution MIC/MFC, antifungal; type: cell-based; details: for MIC: ATCC10231
Description: as §4, §3

Candida auris CDC B11903 = assay: Broth microdilution MIC/MFC, antifungal; type: cell-based; details: Candidozyma auris, CDCB11903
Description: as §4, §3

SMILES | IC50 (MDA-MB-231; 72 h (table footnote)) [µM] | IC50 (MDA-MB-231; same value in µg/mL) [µg/mL] | IC50 (PC3; 72 h (table footnote)) [µM] | IC50 (PC3; same value in µg/mL) [µg/mL] | MIC [1] [µg/mL] | MIC [2] [µg/mL] | MIC [3] [µg/mL] | MIC [4] [µg/mL] | MIC [5] [µg/mL] | MIC [6] [µg/mL] | MIC [7] [µg/mL] | IC50 at 72 h (MTT cell viability assay; 72 h (table footnote)) [µM] | IC50 at 72 h (MTT cell viability assay; same value in µg/mL) [µg/mL] | melting point [°C] | MIC [8] [µg/mL] | MIC [9] [µg/mL] | MIC [10] [µg/mL] | MIC [11] [µg/mL] | MIC [12] [µg/mL] | MIC [13] [µg/mL] | also measured
O=[N+]([O-])c1ccc(C=Nn2c(-c3cccc(F)c3)n[nH]c2=S)cc1 [RO3, 5-(3-fluorophenyl)-4-[(4-nitrobenzylidene)amino]-2,4-dihydro-3H-1,2,4-triazole-3-thione] | > 100 | > 34.3 | > 100 | > 34.3 | > 1000 | > 1000 | > 1000 | > 1000 | > 1000 | > 1000 | > 1000 | > 100 | > 34.3 | 230 to 231 | 1000 (≈ 2.91 mM) | 1000 (≈ 2.91 mM) | 1000 (≈ 2.91 mM) | > 1000 | 500 (≈ 1.46 mM) | 500 (≈ 1.46 mM) | MIC (Candida auris CDC B11903): 1000 µg/mL (≈ 2.91 mM)
COc1ccc(C=Nn2c(-c3cccc(F)c3)n[nH]c2=S)cc1 [RO4, 5-(3-fluorophenyl)-4-[(4-methoxybenzylidene)amino]-2,4-dihydro-3H-1,2,4-triazole-3-thione] | > 100 | > 38.8 | > 100 | > 38.8 | 500 (≈ 1.52 mM) | > 1000 | 500 (≈ 1.52 mM) | 1000 (≈ 3.05 mM) | 1000 (≈ 3.05 mM) | 125 (≈ 0.381 mM) | 1000 (≈ 3.05 mM) | > 100 | > 38.8 | 215 to 216 | 1000 (≈ 3.05 mM) | 500 (≈ 1.52 mM) | 1000 (≈ 3.05 mM) | > 1000 | 1000 (≈ 3.05 mM) | 62.5 (≈ 0.19 mM) | MBC [1]: > 1000 µg/mL; MBC [2]: > 1000 µg/mL; MBC [3]: > 1000 µg/mL; MBC [6]: > 1000 µg/mL; MFC [9]: > 1000 µg/mL; MFC [13]: >1000 µg/mL; MFC ([13]; ATCC10231, read-out: MFC): > 1000 µg/mL; MIC (Candida auris CDC B11903): 1000 µg/mL (≈ 3.05 mM)
COc1cccc(C=Nn2c(-c3cccc(F)c3)n[nH]c2=S)c1 [RO11, 5-(3-fluorophenyl)-4-[(3-methoxybenzylidene)amino]-2,4-dihydro-3H-1,2,4-triazole-3-thione] | > 100 | > 38.8 | > 100 | > 38.8 | > 1000 | > 1000 | > 1000 | > 1000 | > 1000 | > 1000 | > 1000 | > 100 | > 38.8 | 203 to 204 | > 1000 | 1000 (≈ 3.05 mM) | > 1000 | 500 (≈ 1.52 mM) | 1000 (≈ 3.05 mM) | 500 (≈ 1.52 mM) | MFC [11]: > 1000 µg/mL; MFC ([13]; ATCC10231, read-out: MFC): 1000 µg/mL (≈ 3.05 mM); MIC (Candida auris CDC B11903): 1000 µg/mL (≈ 3.05 mM)
